Patent US9198879B2, “Pharmacologically optimized multimodal drug delivery system for nordihydroguiaretic acid (NDGA)” (Napo Pharmaceuticals, Inc., priority 2011, dated 2015)
“Also recorded” adds a separate entry of the source.

Tested on: fructose-fed and fat-fed/STZ rat models
Assay: NDGA versus metformin at equimolar doses in fructose-fed and fat-fed/STZ rat models
Type: in vivo
Settings: equimolar doses of NDGA or metformin
From the text: NDGA has been studied by administering it orally to animals to determine its effectiveness for lowering glucose, free fatty acid (FFA) and triglyceride levels. […] See Example 2 below. […] There was no significant baseline difference between the NDGA and metformin groups.
In one such study, the effects of NDGA and metformin as a control drug for treatment of diabetes were studied in a non-diabetic model of hypertriglyceridemia (fructose-fed) and a non-genetic, (i.e., streptozotocin (STZ) treated) model of diabetes. […] See FIGS. 2 (glucose) and 3 (triglycerides).

## CN(C)C(=N)N=C(N)N [metformin]
  change in insulin concentrations: without changing insulin concentration; also recorded: without any change in insulin concentrations
  glucose lowering in comparison to the vehicle control: significantly lowered glucose
  triglyceride lowering in comparison to the vehicle control: significantly lowered triglycerides
